Results from patent US6410575B1, “Viral treatment” (The Procter & Gamble Company, priority 1999, dated 2002).

System: HIV-1 cell line, CEMSKI
Experiment: Long term in vitro study, CEMSKI
Format: cell-based
Procedure: Toxicity quantification involves the XTT-based evaluation. Assays were designed to characterize the long term effects of the compounds on virus production and to characterize the longer term effects of the compounds on virus production from chronically HIV infected cells.
CEM-SS cells chronically infected with HIV isolate, for example SKI (CEM-SKI) are cultured in RPMI1640 tissue culture medium supplemented with 10% fetal bovine serum and antibiotics. […] CEM-SKI or other infected cells with no added drug are used as the control cells.
Cells are allowed to grow to a density of approximately 1×10^6 cells/ml and are then passaged at a 1:10 dilution. […] The drug concentration in the flask is then increased two-fold and the cells maintained as above.
The cell populations contain integrated copies of the HIV genome and constitutively produce HIV at relatively high levels or are latently infected and only produce virus after stimulation with phorbol esters, tumor necrosis factor or IL6(U1 and ACH2). Reductions in virus products were observed when quantifying supernatant reverse transcriptase activity.
The results with CEMSKI cells was reported at weekly intervals.
The CEMSKI cell like is a viral strain of the CEMSS cell line.

`NC(=S)Nc1nsc(-c2ccccc2)n1` was tested, and the “virus production (supernatant reverse transcriptase activity)” value (“virus production” for short) (7 μg/ml, day 4) was 6593, the “virus production” value (7 μg/ml, day 11) was 8676 and the “virus production” value (7 μg/ml, day 18) was 10912. The “virus production” value (7 μg/ml, day 25) was 9356, the “virus production” value (7 μg/ml, day 32) was 8803 and the “virus production” value (7 μg/ml, day 39) was 6655. The “virus production” value (7 μg/ml, day 46) was 8280, the “virus production” value (7 μg/ml, day 53) was 7549 and the “virus production” value (15 μg/ml, day 4) was 6815. For the same compound, the “virus production” value (15 μg/ml, day 11) was 8202, the “virus production” value (15 μg/ml, day 18) was 10389 and the “virus production” value (15 μg/ml, day 25) was 7816. For the same compound, the “virus production” value (15 μg/ml, day 32) was 6672, the “virus production” value (15 μg/ml, day 39) was 7087 and the “virus production” value (15 μg/ml, day 46) was 6457. For the same compound, the “virus production” value (15 μg/ml, day 53) was 6544, the “virus production” value (30 μg/ml, day 4) was 6626 and the “virus production” value (30 μg/ml, day 11) was 6582. The “virus production” value (30 μg/ml, day 18) was 7494, the “virus production” value (30 μg/ml, day 25) was 4421 and the “virus production” value (30 μg/ml, day 32) was 4056. For the same compound, the “virus production” value (30 μg/ml, day 39) was 2118, the “virus production” value (30 μg/ml, day 46) was 4117 and the “virus production” value (30 μg/ml, day 53) was 4779. For the same compound, the “virus production” value (repeated test, 7 μg/ml, day 4) was 6224, the “virus production” value (repeated test, 7 μg/ml, day 11) was 6658 and the “virus production” value (repeated test, 7 μg/ml, day 18) was 7207. The “virus production” value (repeated test, 7 μg/ml, day 25) was 5725, the “virus production” value (repeated test, 7 μg/ml, day 32) was 3161 and the “virus production” value (repeated test, 7 μg/ml, day 39) was 9602. The “virus production” value (repeated test, 7 μg/ml, day 46) was 13984, the “virus production” value (repeated test, 7 μg/ml, day 53) was 11578 and the “virus production” value (repeated test, 15 μg/ml, day 4) was 5685. For the same compound, the “virus production” value (repeated test, 15 μg/ml, day 11) was 5733, the “virus production” value (repeated test, 15 μg/ml, day 18) was 6236 and the “virus production” value (repeated test, 15 μg/ml, day 25) was 3752. For the same compound, the “virus production” value (repeated test, 15 μg/ml, day 32) was 2451, the “virus production” value (repeated test, 15 μg/ml, day 39) was 5526 and the “virus production” value (repeated test, 15 μg/ml, day 46) was 12397. The “virus production” value (repeated test, 15 μg/ml, day 53) was 9662, the “virus production” value (repeated test, 30 μg/ml, day 4) was 4789 and the “virus production” value (repeated test, 30 μg/ml, day 11) was 5200. The “virus production” value (repeated test, 30 μg/ml, day 18) was 4821, the “virus production” value (repeated test, 30 μg/ml, day 25) was 2418 and the “virus production” value (repeated test, 30 μg/ml, day 32) was 1651. For the same compound, the “virus production” value (repeated test, 30 μg/ml, day 39) was 3386, the “virus production” value (repeated test, 30 μg/ml, day 46) was 9353 and the “virus production” value (repeated test, 30 μg/ml, day 53) was 6466.
